What was measured:
mung bean seedlings = assay: Inducing adventitious roots from hypocotyls of mung bean; format: in vivo; conditions: day 7
Procedure: Test solution preparation: 8 mL of a commercially-available STANLEY universal hydroponic nutrient solution was taken and diluted with tap water to 3,200 mL (400-fold dilution) to produce a dilute nutrient solution. An appropriate amount of each of salt samples such as protoporphyrin disodium and potassium chlorhematin was weighed and prepared with the dilute nutrient solution into 0.010 ppm and 0.1 ppm sample test solutions, and 150 mL of each test solution was taken. 150 mL of the dilute nutrient solution was taken as a blank control. The test solutions and the control solution were placed in brown bottles, and the brown bottles were sealed with a black film. Mung bean seedlings with uniform growth and a seedling height of 7 cm to 8 cm were selected, and cut at 3 cm below a first true leaf node. 8 mung bean seedlings were inserted into each bottle (with roots removed) to make lower radicles soaked in a solution. Mung bean seedlings were treated at room temperature of 20° C. to 25° C. for 7 d in total, during which the solution was changed every 2 d. On day 2 to day 3 of the treatment, there was a significant difference. On day 7, the observation and determination were conducted. An average adventitious root number and an average total adventitious root length for each seedling were calculated, and results were shown in the following table: […]

rice = assay: Germination of rice under salt stress; format: in vivo, rice (Nanjing 9108); conditions: sample 0.2 ppm; for Increase of root weight-promoting speed / Increase of root-shoot ratio / Increase of seedling weight-promoting rate: versus 4.5 g/L NaCl without sample
Procedure: The selected full seeds of rice (variety: Nanjing 9108) were soaked in a sodium hypochlorite solution to allow disinfection for 2 min to 3 min, and then rinsed with clear water twice to three times. After the rinsing, 50 full seeds were selected and fully immersed in a prepared seed-soaking solution at 25° C. for 48 h. The soaked seeds were transferred to a plastic box with two paper towel layers tiled. The germination bed was moistened with a salt solution at a concentration corresponding to each treatment. The seeds were incubated in a 25° C. incubator with a light cycle of 12 h light/12 h dark and a humidity of 70%, during which the germination bed was always kept moist. The germination of rice seeds and the growth of seedlings were observed and recorded day by day. A germination rate of each treatment was recorded on […], and a number of normal seedlings was counted on day 14. 10 seeds were randomly selected from each treatment to measure a seedling length, a root length, a root number, a root weight, and a seedling weight. The germination energy was counted on day 5 and a germination rate was counted on day 14.

wheat = assay: Spraying on wheat to increase a yield; format: in vivo, wheat (Huaimai 35)
Procedure: Crop: Huaimai 35. […] On Jun. 11, 2021, the harvesting was conducted throughout the field at a time.

[1] = Stability of sample solutions in the dark/under light; format: physicochemical; conditions: under light 30,000 lux, salts in water, acidic reference in 30% to 50% ethanol
Procedure, shortened: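 Salt in water, or acidic reference in 30–50% aqueous ethanol, at about 10 ppm; UV absorbance scanned 200–800 nm at 0, 1, 2, 3 h, stored at 25° C dark or under 30,000 lux light. Relative content = max-peak absorbance at each time divided by 0 h value (100%).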

rice seedlings = assay: Spraying on drought rice seedlings; format: in vivo, rice (Huiliangyou 473)
Procedure: Method: Full rice seeds were selected, disinfected with 6% sodium hypochlorite for 2 min to 3 min, then rinsed with water, soaked in clear water at room temperature (30±1° C.) until the germination was started, and then transferred to seedling trays to raise seedlings. About 15 d later, rice seedlings with consistent growth were selected and transferred into buckets to allow further growth, with 3 holes per bucket and 2 plants per hole. A soil was a clay loam. Before transplanting, the soil was crushed, sieved, and thoroughly mixed. […] The water, fertilizers, pests, and diseases during the cultivation in the seedling trays were uniformly managed.
Drought model: The transplanting was conducted on Aug. 18, 2020. The next day (August 19), the natural drought and sample-spraying treatment were started for rice seedlings. A soil moisture content was determined by the NY/T 52-1987 method.
After the drought stress and sample-spraying were started at a tillering stage (September 19) of rice, a chlorophyll content (mg/g) in leaves was detected twice on day 3 and day 6 (September 21 and September 25), respectively.

chlorophyllase = assay: In vitro chlorophyllase-inhibiting activity test; format: biochemical, mung bean; conditions: substrate chlorophyll 120 ppm, sample 0.3 ppm to 30.0 ppm
Procedure: A chlorophyllase inhibition rate of a salt sample solution at each concentration was determined, and an IC50 value for a chlorophyllase inhibition activity of a salt sample was calculated.

[2] = Water solubility of the prepared salts; format: physicochemical
[3] = 3 mg/mu sprayed 3 times (0.2, 0.1, 0.1 ppm)

## potassium iron chlorin [Example 20]
Mung bean seedlings; 0.01 ppm
  Adventitious root number: 15.05 root/seedling
  Total adventitious root length: 24.56 cm/seedling
Mung bean seedlings; 0.1 ppm
  Adventitious root number: 14.54 root/seedling
  Total adventitious root length: 23.55 cm/seedling
rice; NaCl 0 g/L
  Average germination time: 3.10 D
  Dry root weight: 0.0587 g/plant
  Dry seedling weight: 0.0543 g
  First leaf length: 3.84 cm
  Germination energy: 98.0%
  Germination index: 52.21%
  Germination rate: 98.0%
  Root length: 7.00 cm
  Root number: 8.67 roots/plant
  Root weight-promoting speed: 4.19 mg/day
  Root-shoot ratio: 1.082
  Seedling height: 6.83 cm
  Seedling weight-promoting rate: 3.88 mg/day
  Vitality index: 16.29%
  Increase of root weight-promoting speed: 53.04%
  Increase of root-shoot ratio: 25.31%
  Increase of seedling weight-promoting rate: 19.27%
rice; NaCl 2.5 g/L
  Average germination time: 3.28 D
  Dry root weight: 0.0473 g/plant
  Dry seedling weight: 0.0547 g
  First leaf length: 3.79 cm
  Germination energy: 96.7%
  Germination index: 49.99%
  Germination rate: 97.3%
  Root length: 4.86 cm
  Root number: 7.70 roots/plant
  Root weight-promoting speed: 3.38 mg/day
  Root-shoot ratio: 0.865
  Seedling height: 6.68 cm
  Seedling weight-promoting rate: 3.90 mg/day
  Vitality index: 14.38%
  Increase of root weight-promoting speed: 23.48%
  Increase of root-shoot ratio: 0.15%
  Increase of seedling weight-promoting rate: 20%
rice; NaCl 4.5 g/L
  Average germination time: 3.16 D
  Dry root weight: 0.0480 g/plant
  Dry seedling weight: 0.0580 g
  First leaf length: 3.88 cm
  Germination energy: 97.3%
  Germination index: 50.89%
  Germination rate: 97.3%
  Root length: 5.00 cm
  Root number: 7.17 roots/plant
  Root weight-promoting speed: 3.43 mg/day
  Root-shoot ratio: 0.836
  Seedling height: 6.71 cm
  Seedling weight-promoting rate: 4.14 mg/day
  Vitality index: 15.12%
  Increase of root weight-promoting speed: 25.22%
  Increase of root-shoot ratio: −3.17%
  Increase of seedling weight-promoting rate: 27.32%
wheat; [3]
  Actual yield per mu: 601.5 kg
  Ear number per mu: 31.9 10,000
  Grain number per ear: 35.0 grains/ear
  Thousand-grain weight: 53.9 g
wheat; 3 mg/mu sprayed 3 times, versus clear water
  Yield increase rate per mu: 7.60%
[1]; 1 h
  Relative content: 70.13%
[1]; 2 h
  Relative content: 62.66%
[1]; 3 h
  Relative content: 59.17%
Rice seedlings; 0.002 ppm, Day 3
  Change rate of chlorophyll content: 9.49%
  Chlorophyll content in rice leaves: 3.69 mg/g
Rice seedlings; 0.002 ppm, Day 6
  Change rate of chlorophyll content: 42.96%
  Chlorophyll content in rice leaves: 3.86 mg/g
Rice seedlings; 0.05 ppm, Day 3
  Change rate of chlorophyll content: 29.67%
  Chlorophyll content in rice leaves: 4.37 mg/g
Rice seedlings; 0.05 ppm, Day 6
  Change rate of chlorophyll content: 63.70%
  Chlorophyll content in rice leaves: 4.42 mg/g
chlorophyllase
  IC50 for chlorophyllase inhibition activity: 5.07 ppm
[2]
  solubility in water: easily soluble

Reference: patent US20260123631A1, “NATURAL PORPHIN SALT AND USE THEREOF AS PLANT GROWTH REGULATOR AND PLANT IMMUNITY INDUCER” (NANJING BOSTEC BIOLOGICAL ENGINEERING CO., LTD, priority 2022, published 2026)
